Experimental findings from ChEMBL document CHEMBL5465560, “Selectivity Literature for EUbOPEN Chemogenomic Library” (2024) are described below.

For assay [1], the target named is Calcium/calmodulin-dependent protein kinase kinase 2 (Homo sapiens) (UniProt Q96RR4). Conditions: at 10 µM.
Assay [2] has as its target Interferon-induced, double-stranded RNA-activated protein kinase (Homo sapiens) (UniProt P19525). Kind of assay: Selectivity interaction (KinomeScan (DiscoverX)) EUB0001079a EIF2AK2. Conditions: at 1 µM.
Assay [3] addresses Wee1-like protein kinase (Homo sapiens) (UniProt P30291). Kind of assay: Selectivity interaction (KinomeScan (DiscoverX)) EUB0000092b WEE1. Conditions: at 10 µM.
Assay [4] deals with Platelet-derived growth factor receptor alpha (Homo sapiens, UniProt P16234). Kind of assay: Selectivity interaction (KinomeScan (DiscoverX)) EUB0000695a PDGFRA. Conditions: at 100 nM.
The target of assay [5] is Serine/threonine-protein kinase 25 (Homo sapiens) (UniProt O00506). Kind of assay: Selectivity interaction (KinomeScan (DiscoverX)) EUB0000045b STK25.
Assay [6] deals with Activin receptor type-1-like (Homo sapiens) (UniProt P37023). Kind of assay: Selectivity interaction (LanthaScreen Eu Kinase Binding Assay) EUB0001632a ACVRL1. Conditions: at 10 µM. For orientation: TR-FRET usually uses a lanthanide donor and a delayed reading to cut background.
The target of assay [7] is T1, Mitogen-activated protein kinase kinase kinase kinase 3 (Homo sapiens) (UniProt Q8IVH8).
T1 sequence (whole entry): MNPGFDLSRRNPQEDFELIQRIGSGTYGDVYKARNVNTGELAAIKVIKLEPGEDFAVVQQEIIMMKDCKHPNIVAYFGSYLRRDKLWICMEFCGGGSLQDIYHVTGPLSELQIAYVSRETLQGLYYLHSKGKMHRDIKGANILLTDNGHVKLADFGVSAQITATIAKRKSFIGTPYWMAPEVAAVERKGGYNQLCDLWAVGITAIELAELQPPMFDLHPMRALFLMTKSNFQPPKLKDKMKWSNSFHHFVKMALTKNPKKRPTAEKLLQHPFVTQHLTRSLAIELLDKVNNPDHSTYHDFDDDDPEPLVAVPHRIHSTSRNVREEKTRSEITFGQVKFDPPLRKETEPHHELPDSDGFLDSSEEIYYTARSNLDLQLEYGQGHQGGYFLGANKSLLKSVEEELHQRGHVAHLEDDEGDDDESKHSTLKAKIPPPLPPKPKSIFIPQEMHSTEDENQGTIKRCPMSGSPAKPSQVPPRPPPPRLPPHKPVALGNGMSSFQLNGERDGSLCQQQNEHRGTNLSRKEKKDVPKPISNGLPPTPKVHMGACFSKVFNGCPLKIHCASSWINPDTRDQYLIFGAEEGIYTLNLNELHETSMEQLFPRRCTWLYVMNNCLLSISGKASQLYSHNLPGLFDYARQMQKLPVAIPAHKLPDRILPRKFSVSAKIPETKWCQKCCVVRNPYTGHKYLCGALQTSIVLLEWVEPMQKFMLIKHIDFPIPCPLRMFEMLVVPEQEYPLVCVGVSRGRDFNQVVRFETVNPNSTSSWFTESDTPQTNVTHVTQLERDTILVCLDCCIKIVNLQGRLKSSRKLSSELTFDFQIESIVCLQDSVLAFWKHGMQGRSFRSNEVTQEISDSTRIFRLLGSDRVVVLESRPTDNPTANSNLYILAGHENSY
The experiment in a line: Selectivity interaction (KinomeScan (DiscoverX)) EUB0000229b MAP4K3. Conditions: at 10 µM.

In assay [8] the target is T2, Cyclin-G-associated kinase (Homo sapiens) (UniProt O14976).
T2 sequence (whole entry): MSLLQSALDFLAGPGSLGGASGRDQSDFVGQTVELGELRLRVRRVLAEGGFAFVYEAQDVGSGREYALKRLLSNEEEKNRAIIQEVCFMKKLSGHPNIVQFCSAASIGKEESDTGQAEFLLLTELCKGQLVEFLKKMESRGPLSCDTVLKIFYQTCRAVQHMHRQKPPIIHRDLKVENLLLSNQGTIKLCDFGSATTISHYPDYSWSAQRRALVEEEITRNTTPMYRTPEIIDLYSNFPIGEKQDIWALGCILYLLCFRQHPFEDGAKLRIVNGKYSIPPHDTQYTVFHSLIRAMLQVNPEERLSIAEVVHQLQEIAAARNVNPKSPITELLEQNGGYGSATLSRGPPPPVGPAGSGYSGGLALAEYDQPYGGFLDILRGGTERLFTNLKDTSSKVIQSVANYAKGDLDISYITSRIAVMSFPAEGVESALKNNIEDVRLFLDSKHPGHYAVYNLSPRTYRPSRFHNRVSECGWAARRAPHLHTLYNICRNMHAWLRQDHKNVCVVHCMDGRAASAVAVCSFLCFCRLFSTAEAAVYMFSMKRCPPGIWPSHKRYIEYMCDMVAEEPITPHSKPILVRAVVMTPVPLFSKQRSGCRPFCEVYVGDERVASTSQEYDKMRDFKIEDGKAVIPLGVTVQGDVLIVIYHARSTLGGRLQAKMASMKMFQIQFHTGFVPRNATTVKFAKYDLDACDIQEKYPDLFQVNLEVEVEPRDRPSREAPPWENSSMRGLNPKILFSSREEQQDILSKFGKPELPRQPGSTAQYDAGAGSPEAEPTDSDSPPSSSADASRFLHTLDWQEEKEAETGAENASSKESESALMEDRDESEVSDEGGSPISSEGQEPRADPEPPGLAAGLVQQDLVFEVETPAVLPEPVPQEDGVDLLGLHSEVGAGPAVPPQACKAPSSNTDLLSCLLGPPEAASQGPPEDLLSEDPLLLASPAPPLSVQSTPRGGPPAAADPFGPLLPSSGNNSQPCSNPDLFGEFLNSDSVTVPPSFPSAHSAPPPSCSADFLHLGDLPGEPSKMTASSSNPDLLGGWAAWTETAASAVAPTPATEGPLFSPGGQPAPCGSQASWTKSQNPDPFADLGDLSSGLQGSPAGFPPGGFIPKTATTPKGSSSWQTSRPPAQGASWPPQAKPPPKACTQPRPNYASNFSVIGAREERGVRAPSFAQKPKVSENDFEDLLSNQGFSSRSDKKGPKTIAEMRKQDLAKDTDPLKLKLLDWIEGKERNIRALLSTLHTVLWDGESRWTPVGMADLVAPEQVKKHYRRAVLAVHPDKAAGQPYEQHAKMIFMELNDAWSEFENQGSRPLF
Kind of assay: Selectivity interaction (Kinase panel (DSF assay)) EUB0001559a GAK. (In general: In DSF a fluorescence change marks the thermal transition of the protein.)

Sequence of Serine/threonine-protein kinase 25 (Homo sapiens) (O00506 whole entry, looked up): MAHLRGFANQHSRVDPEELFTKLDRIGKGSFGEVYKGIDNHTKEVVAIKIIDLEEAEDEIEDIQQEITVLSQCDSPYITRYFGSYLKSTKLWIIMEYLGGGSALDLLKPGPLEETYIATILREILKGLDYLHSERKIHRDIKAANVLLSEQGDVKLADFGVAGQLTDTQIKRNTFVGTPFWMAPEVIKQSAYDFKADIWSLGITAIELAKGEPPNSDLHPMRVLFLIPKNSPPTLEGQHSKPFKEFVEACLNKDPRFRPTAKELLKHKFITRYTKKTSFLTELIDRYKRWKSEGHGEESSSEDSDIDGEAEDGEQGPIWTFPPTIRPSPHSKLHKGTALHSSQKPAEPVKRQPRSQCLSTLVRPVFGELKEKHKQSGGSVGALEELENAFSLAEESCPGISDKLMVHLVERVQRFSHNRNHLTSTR
Sequence of Platelet-derived growth factor receptor alpha (P16234 whole entry): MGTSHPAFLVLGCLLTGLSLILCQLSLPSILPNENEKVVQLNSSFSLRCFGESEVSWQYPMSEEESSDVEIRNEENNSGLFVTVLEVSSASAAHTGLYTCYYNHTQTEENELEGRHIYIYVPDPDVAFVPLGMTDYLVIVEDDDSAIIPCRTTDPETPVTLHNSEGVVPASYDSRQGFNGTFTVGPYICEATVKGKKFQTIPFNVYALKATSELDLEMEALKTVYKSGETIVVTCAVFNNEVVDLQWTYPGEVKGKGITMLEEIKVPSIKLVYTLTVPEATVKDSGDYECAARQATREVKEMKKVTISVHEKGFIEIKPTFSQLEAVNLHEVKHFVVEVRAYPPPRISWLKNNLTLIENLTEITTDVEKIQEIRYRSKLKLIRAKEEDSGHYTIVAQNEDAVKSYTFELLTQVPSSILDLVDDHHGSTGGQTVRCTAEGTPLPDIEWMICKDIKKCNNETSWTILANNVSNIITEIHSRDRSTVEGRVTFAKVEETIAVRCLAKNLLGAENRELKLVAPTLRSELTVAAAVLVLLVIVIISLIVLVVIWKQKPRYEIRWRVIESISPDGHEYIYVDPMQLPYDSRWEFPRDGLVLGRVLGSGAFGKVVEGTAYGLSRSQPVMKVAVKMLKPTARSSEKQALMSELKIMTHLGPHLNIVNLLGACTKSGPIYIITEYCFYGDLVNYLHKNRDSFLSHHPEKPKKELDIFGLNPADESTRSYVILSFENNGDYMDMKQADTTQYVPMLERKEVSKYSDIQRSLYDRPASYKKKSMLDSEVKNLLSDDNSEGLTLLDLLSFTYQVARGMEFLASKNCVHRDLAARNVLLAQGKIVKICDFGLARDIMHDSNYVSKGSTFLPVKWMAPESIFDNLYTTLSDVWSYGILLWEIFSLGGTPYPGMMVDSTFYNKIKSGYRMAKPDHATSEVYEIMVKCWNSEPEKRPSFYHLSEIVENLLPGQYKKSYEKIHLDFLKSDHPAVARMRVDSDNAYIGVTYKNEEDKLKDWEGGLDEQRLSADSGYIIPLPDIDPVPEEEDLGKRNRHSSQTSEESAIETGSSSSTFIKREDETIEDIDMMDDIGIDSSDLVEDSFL
Sequence of Activin receptor type-1-like (Homo sapiens) (P37023 whole entry): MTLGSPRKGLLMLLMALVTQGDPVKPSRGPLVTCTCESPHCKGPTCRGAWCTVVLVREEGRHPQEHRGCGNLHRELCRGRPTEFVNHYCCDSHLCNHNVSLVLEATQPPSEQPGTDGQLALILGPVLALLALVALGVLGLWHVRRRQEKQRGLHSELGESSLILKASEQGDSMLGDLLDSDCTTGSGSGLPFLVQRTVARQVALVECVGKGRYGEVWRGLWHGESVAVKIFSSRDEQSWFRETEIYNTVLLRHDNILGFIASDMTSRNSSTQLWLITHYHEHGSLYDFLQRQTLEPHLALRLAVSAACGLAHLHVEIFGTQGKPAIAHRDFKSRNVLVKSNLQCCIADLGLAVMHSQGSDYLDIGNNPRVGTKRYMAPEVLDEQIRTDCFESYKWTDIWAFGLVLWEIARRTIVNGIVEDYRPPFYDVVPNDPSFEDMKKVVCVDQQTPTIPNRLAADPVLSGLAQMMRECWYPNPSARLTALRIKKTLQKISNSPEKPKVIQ
Sequence of Wee1-like protein kinase (Homo sapiens) (P30291 whole entry, looked up): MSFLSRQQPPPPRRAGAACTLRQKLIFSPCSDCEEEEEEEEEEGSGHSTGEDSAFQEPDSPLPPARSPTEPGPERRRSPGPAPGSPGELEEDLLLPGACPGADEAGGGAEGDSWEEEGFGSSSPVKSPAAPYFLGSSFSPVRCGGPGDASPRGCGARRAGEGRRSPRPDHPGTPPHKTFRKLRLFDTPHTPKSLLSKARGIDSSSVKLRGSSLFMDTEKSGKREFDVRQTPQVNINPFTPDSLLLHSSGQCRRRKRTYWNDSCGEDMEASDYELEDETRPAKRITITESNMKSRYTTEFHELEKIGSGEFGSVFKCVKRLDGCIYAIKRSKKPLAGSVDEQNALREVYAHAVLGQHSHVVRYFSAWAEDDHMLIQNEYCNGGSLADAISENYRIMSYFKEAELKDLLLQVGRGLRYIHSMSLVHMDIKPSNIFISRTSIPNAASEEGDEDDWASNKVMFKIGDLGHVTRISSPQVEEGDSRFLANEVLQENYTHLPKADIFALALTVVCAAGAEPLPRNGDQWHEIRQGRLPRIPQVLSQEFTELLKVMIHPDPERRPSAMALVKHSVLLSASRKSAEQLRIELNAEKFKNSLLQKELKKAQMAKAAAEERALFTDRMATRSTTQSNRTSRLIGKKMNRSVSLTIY
Sequence of Interferon-induced, double-stranded RNA-activated protein kinase (Homo sapiens) (P19525 whole entry): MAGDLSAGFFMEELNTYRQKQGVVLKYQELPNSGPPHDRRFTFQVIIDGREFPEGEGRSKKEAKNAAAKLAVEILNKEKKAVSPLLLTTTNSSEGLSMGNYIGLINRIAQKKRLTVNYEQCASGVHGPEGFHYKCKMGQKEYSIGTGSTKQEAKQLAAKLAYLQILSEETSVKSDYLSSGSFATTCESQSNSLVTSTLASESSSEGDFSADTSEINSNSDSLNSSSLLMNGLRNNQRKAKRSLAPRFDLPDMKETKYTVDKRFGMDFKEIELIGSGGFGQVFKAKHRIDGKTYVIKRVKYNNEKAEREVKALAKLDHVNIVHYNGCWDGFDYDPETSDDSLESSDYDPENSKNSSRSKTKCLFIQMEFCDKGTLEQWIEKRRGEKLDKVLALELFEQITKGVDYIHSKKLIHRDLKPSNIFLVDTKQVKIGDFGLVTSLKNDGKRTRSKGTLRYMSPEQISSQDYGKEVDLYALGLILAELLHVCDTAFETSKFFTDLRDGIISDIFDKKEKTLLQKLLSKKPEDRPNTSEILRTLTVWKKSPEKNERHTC
Sequence of Calcium/calmodulin-dependent protein kinase kinase 2 (Homo sapiens) (Q96RR4 2-588 limits assumed): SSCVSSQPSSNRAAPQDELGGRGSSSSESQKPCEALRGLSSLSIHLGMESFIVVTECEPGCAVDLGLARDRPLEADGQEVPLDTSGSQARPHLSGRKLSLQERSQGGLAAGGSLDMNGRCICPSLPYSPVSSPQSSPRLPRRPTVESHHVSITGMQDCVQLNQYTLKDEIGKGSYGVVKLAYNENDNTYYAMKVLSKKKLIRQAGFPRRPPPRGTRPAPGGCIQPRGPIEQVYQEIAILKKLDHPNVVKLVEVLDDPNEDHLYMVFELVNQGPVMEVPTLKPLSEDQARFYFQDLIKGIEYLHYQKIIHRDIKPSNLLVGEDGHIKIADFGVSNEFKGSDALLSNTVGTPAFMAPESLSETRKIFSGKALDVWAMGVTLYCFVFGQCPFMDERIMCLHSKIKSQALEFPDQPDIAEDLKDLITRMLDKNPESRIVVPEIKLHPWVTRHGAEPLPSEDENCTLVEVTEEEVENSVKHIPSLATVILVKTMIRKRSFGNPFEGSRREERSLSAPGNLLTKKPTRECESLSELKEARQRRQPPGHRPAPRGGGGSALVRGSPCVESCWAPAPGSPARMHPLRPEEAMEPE

As for `Cc1cc([C@@H](C)Nc2ccccc2C(=O)O)c2nc(N3CCOCC3)cc(=O)n2c1` [AZD-6482], the % of control in assay [1] was determined as 100%. `Nc1cnc(N2CCc3cc(S(=O)(=O)Nc4c(F)cc(Cl)cc4F)cc(N4CCCC4=O)c32)nc1` [TP-020n] came in with a % of control in assay [2] of 41%. In turn, `CCC(=O)N1CCN(c2ccc(-n3c(=O)ccc4cnc5ccc(-c6cnc7ccccc7c6)cc5c43)cc2C(F)(F)F)CC1` registered a % of control in assay [3] of 42%. `Cc1cc(F)c(C(=O)Nc2cccc(-c3nncn3C(C)C)n2)cc1-n1cnc(C2CC2)c1` gave a % of control in assay [4] of 100%. Consider `C=CC(=O)Nc1cc(-n2c(=O)ccc3cnc4ccc(-c5ccc(NS(C)(=O)=O)cc5)cc4c32)ccc1C`, for which the % of control in assay [5] (at 1 µM) was 100%; in assay [5] (at 10 µM), 65%. With `Cn1cc(-n2cnc3c(NCc4nc5cc(Cl)c(Cl)cc5[nH]4)nc(N4CCOCC4)nc32)cn1`, the % of inhibition in assay [6] was -13%. `COc1cc(N(C)c2ccnc3ccc(C(F)(F)F)cc23)cc(OC)c1OC`: the % binding in assay [7] came out at 87%. For `CN(C(=O)c1cnn2cccnc12)c1cc2c(cc1N1CCOCC1)C(=O)N(C[C@@H](F)C(C)(C)O)C2`, in assay [8], the dTM stood at 0.1 K.
